From patent US20240131168A1, “NAPHTHALENE RING-CONTAINING COMPOUND, PHARMACEUTICAL COMPOSITION CONTAINING SAME, AND USE THEREOF” (JIANGSU YAHONG MEDITECH CO., LTD., priority 2021, published 2024)

Assays:
Format in all cases: cell-based
MCF-7 ER^D538G = assay: CellTiter-Glo cell proliferation inhibition, MCF-7 ER^D538G; conditions: Homo sapiens, MCF7, 144 h, MCF-7 ER^D538G (CTG), 6 days, starting concentration 10 μM; for inhibition at up to 10 µM: read-out: IH % max (maximum inhibition percentage)
Excerpt: (§1) 1. Cell line • (1) Breast cancer cell lines and their culture media: • MCF-7 (ATCC; Cat. No.: HTB-22), a Luminal A breast cancer cell; • TamR-MCF-7 (ATCC; Cat. No.: CRL-3435), a breast cancer cell; • MCF-7 ER^D538G: a Luminal A breast cancer cell obtained by constructing MCF-7 (ATCC; Cat. No.: HTB-22) using CRISPR-Cas9 gene editing technology; • MCF-7 ER^Y537S: a Luminal A breast cancer cell obtained by constructing MCF-7 (ATCC; Cat. No.: HTB-22) using CRISPR-Cas9 gene editing technology; • MDA-MB-231: (manufacturer: Nanjing CoBioer Biosciences Co., Ltd.), a triple-negative breast cancer cell; • MDA-MB-468: (manufacturer: Nanjing CoBioer Biosciences Co., Ltd.), a triple-negative breast cancer cell.
(§2) Herein, the culture medium of MCF-7, TamR-MCF-7, MCF-7 ER^D538G, and MCF-7 ER^Y537S was EMEM; • the culture medium of MDA-MB-231 and MDA-MB-468 was DMEM.
(§3) 2. Reagents • Culture medium EMEM (Gibco, 1964507) • Culture medium DMEM (Gibco, 12430-054) • Fetal bovine serum (Gibco, 10091148) • Penicillin-streptomycin double antibody (Gibco, S110JV) • DPBS (Gibco, 14190-144) • CellTiter-Glo® assay kit (Promega, G7573) • Trypsin (0.25%) (Gibco, 25200-056) • DMSO (Sigma, D2650)
(§4) 3. Instruments • Biosafety cabinet (AIRTECH, BSC-1300A II) • Automated cell counter (Life Technologies, countess II) • Multifunctional microplate reader (Biotek, H1FM) • Orbital shaker (Hangzhou Allsheng Instruments Co., Ltd., OS-100) • XLFIT 5.3 (Inforstack Shanghai Co., Ltd.)
(§5) For this test method, the following experiments were performed in a biosafety cabinet, with the specific steps as follows: • (1) Cells were inoculated in a 96-well plate. One day later, the previous culture medium was poured off, 5 mL of DPBS was added to wash the cells, and then DPBS was pipetted and discarded. An appropriate amount of trypsin was then added. The plate was digested in a 37° C., 5% CO2 cell incubator for about 2 to 5 minutes and then taken out. Anew corresponding culture medium was added, and pipetted up and down to resuspend the cells evenly. The cells were then counted using an automated cell counter. • (2) Each cell was inoculated in columns 1 to 11 of a 96-well plate (Corning, Cat. No.: 3610) at a density of 1,000 or 2,000 cells per well in 100 μL of culture medium, and 100 μL of the corresponding culture medium without cells was added to the wells in column 12. The plate was then placed in a 37° C., 5% CO2 incubator for 24 hours. • (3) The compound of the present disclosure and the control drug fulvestrant (Selleck; Cat. No.: S1191) were then 4-fold serially diluted to 10 dose points starting at 10 μM. 10 μL of the serially diluted compound was pipetted and added to 100 μL of cells in columns 1 to 10, and 10 μL of the corresponding culture medium containing 0.33 v % DMSO was added to both columns 11 and 12. The plate was incubated in a 37° C., 5% CO2 incubator for 6 days or 72 hours (Note: column 11 was used as a MAX well with cells but without compound; column 12 was used as a MIN well without cells […]). • (4) The cell viability detection reagent in the CellTiter-Glo® assay kit was then added to the 96-well plate at 50 μL per well according to the instructions, and shaken on an orbital shaker in the dark for 5 to 10 minutes. The cell viability was then measured using a multifunctional microplate reader. Finally, the inhibition of cell proliferation by the compound of the present disclosure was plotted by XLFIT software, and the IC50 value (half inhibitory concentration) and the IH % max (maximum inhibition percentage) of the compound of the present disclosure were calculated.

MCF-7 = assay: CellTiter-Glo cell proliferation inhibition, MCF-7 (Effect Example 2); conditions: Homo sapiens, MCF7, 144 h, MCF-7 (CTG), 6 days, starting concentration 10 μM; for inhibition at up to 10 µM: read-out: IH % max (maximum inhibition percentage)
Excerpt: as §1, §2, §3, §4, §5

MCF-7 ER^Y537S = assay: CellTiter-Glo cell proliferation inhibition, MCF-7 ER^Y537S; conditions: Homo sapiens, MCF7, 144 h; MCF-7 ER^Y537S (CTG), 6 days, starting concentration 10 μM; read-out: IH % max (maximum inhibition percentage)
Excerpt: as §1, §2, §3, §4, §5

TamR-MCF-7 = assay: CellTiter-Glo cell proliferation inhibition, TamR-MCF-7; conditions: 144 h; TamR-MCF-7 (CTG), 6 days, starting concentration 10 μM; read-out: IH % max (maximum inhibition percentage)
Excerpt: as §1, §2, §3, §4, §5

MDA-MB-468 = assay: CellTiter-Glo cell proliferation inhibition, MDA-MB-468; conditions: Homo sapiens, 144 h; MDA-MB-468 (CTG), 6 days, starting concentration 10 μM; read-out: IH % max (maximum inhibition percentage)
Excerpt: as §1, §2, §3, §4, §5
Compounds D64 to D69 were tested for MDA-MB-231 (CTG) and MDA-MB-468 (CTG) with an incubation time of 72 hours in the incubator.

Structure (SMILES)	inhibition at up to 10 µM (MCF-7 ER^D538G) [%]	inhibition at up to 10 µM (MCF-7) [%]	inhibition at up to 10 µM (MCF-7 ER^Y537S) [%]	inhibition at up to 10 µM (TamR-MCF-7) [%]	inhibition at up to 10 µM (MDA-MB-468) [%]	IC50 (MCF-7 ER^D538G) [nM]	IC50 (MCF-7) [nM]
CCN(CCOCCOCCOCCOc1ccc2c(c1)C(=O)N(C1CCC(=O)NC1=O)C2=O)CCOc1ccc(Oc2c(-c3ccc(S(C)(=O)=O)cc3)ccc3cc(O)ccc23)cc1 (centres unmarked) [Compound D48, 2-(2,6-dioxopiperidin-3-yl)-5-((3-ethyl-1-(4-((6-hydroxy-2-(4-(methylsulfonyl)phenyl)naphthalen-1-yl)oxy)phenoxy)-6,9,12-trioxa-3-azatetradecan-14-yl)oxy)isoindoline-1,3-dione]	66	32	41				
C[C@@H]1CN(CCOc2ccc(Oc3c(-c4ccc(S(C)(=O)=O)cc4)ccc4cc(O)ccc34)cc2)[C@@H](C)CN1CCN1CCN(c2ccc3c(c2)C(=O)N(C2CCC(=O)NC2=O)C3)CC1 (stereo partly drawn) [Compound D61, 3-(6-(4-(2-((2R,5S)-4-(2-(4-((6-hydroxy-2-(4-(methylsulfonyl)phenyl)naphthalen-1-yl)oxy)phenoxy)ethyl)-2,5-dimethylpiperazin-1-yl)ethyl)piperazin-1-yl)-1-oxoisoindolin-2-yl)piperidine-2,6-dione]		45.6		40.2	32.7		
CS(=O)(=O)c1ccc(-c2ccc3cc(O)ccc3c2Oc2ccc(OCCOCCOCCN3CCN(c4ccc5c(c4)C(=O)N(C4CCC(=O)NC4=O)C5=O)CC3)cc2)cc1 (centres unmarked) [Compound D16, 2-(2,6-dioxopiperidin-3-yl)-5-(4-(2-(2-(2-(4-((6-hydroxy-2-(4-(methylsulfonyl)phenyl)naphthalen-1-yl)oxy)phenoxy)ethoxy)ethoxy)ethyl)piperazin-1-yl)isoindoline-1,3-dione]	47	51		33			
CCN(CCCCCOCC(=O)Nc1cccc2c1CN(C1CCC(=O)NC1=O)C2=O)CCOc1ccc(Oc2c(-c3ccc(S(C)(=O)=O)cc3)ccc3cc(O)ccc23)cc1 (centres unmarked) [Compound D1, N-(2-(2,6-dioxopiperidin-3-yl)-1-oxoisoindolin-4-yl)-2-((5-(ethyl(2-(4-((6-hydroxy-2-(4-(methylsulfonyl)phenyl)naphthalen-1-yl)oxy)phenoxy)ethyl)amino)pentyl)oxy)acetamide]	79	30	73	33			
CCN(CCOCC(=O)N1CCN(c2cccc3c2CN(C2CCC(=O)NC2=O)C3=O)CC1)CCOc1ccc(Oc2c(-c3ccc(S(C)(=O)=O)cc3)ccc3cc(O)ccc23)cc1 (centres unmarked) [Compound D52]		52.6		39.4			
CCN(CCCc1ccc2c(c1)CN(C1CCC(=O)NC1=O)C2=O)CCOc1ccc(Oc2c(-c3ccc(S(C)(=O)=O)cc3)ccc3cc(O)ccc23)cc1 (centres unmarked) [Compound D4, 3-(5-(3-(ethyl(2-(4-((6-hydroxy-2-(4-(methylsulfonyl)phenyl)naphthalen-1-yl)oxy)phenoxy)ethyl)amino)propyl)-1-oxoisoindolin-2-yl)piperidine-2,6-dione]	80		63	32	53	502	
CS(=O)(=O)c1ccc(-c2ccc3cc(O)ccc3c2Oc2ccc(OCCN3CCN(c4ccc5c(c4)C(=O)N(C4CCC(=O)NC4=O)C5)CC3)cc2)cc1 (centres unmarked) [Compound D32, 3-(6-(4-(2-(4-((6-hydroxy-2-(4-(methylsulfonyl)phenyl)naphthalen-1-yl)oxy)phenoxy)ethyl)piperazin-1-yl)-1-oxoisoindolin-2-yl)piperidine-2,6-dione]	38	39	33				
CS(=O)(=O)c1ccc(-c2ccc3cc(O)ccc3c2Oc2ccc(OCCOCCOCCOCCN3CCN(c4ccc5c(c4)CN(C4CCC(=O)NC4=O)C5=O)CC3)cc2)cc1 (centres unmarked) [Compound D27]	69	60		40			222
CCN(CCOCCOCCNc1ccc2c(c1)C(=O)N(C1CCC(=O)NC1=O)C2=O)CCOc1ccc(Oc2c(-c3ccc(S(C)(=O)=O)cc3)ccc3cc(O)ccc23)cc1 (centres unmarked) [Compound D45]	75	35	44	33		198	
CCN(CCOCCNc1ccc2c(c1)C(=O)N(C1CCC(=O)NC1=O)C2=O)CCOc1ccc(Oc2c(-c3ccc(S(C)(=O)=O)cc3)ccc3cc(O)ccc23)cc1 (centres unmarked) [Compound D38, […]]	54		47				
CCN(CCOc1ccc(Oc2c(-c3ccc(S(C)(=O)=O)cc3)ccc3cc(O)ccc23)cc1)CCN1CCN(c2ccc3c(c2)CN(C2CCC(=O)NC2=O)C3=O)CC1 (centres unmarked) [Compound D57, 3-(5-(4-(2-(ethyl(2-(4-((6-hydroxy-2-(4-(methylsulfonyl)phenyl)naphthalen-1-yl)oxy)phenoxy)ethyl)amino)ethyl)piperazin-1-yl)-1-oxoisoindolin-2-yl)piperidine-2,6-dione]	51		46				
CCN(CCOCCOCCOc1cccc2c1C(=O)N(C1CCC(=O)NC1=O)C2=O)CCOc1ccc(Oc2c(-c3ccc(S(C)(=O)=O)cc3)ccc3cc(O)ccc23)cc1 (centres unmarked) [Compound D41]	65		50		31		
CCN(CCOCCOCCNc1cccc2c1C(=O)N(C1CCC(=O)NC1=O)C2=O)CCOc1ccc(Oc2c(-c3ccc(S(C)(=O)=O)cc3)ccc3cc(O)ccc23)cc1 (centres unmarked) [Compound D42]	77	37	46		39	283	
CCN(CCOCCOCCOCCOc1cccc2c1C(=O)N(C1CCC(=O)NC1=O)C2=O)CCOc1ccc(Oc2c(-c3ccc(S(C)(=O)=O)cc3)ccc3cc(O)ccc23)cc1 (centres unmarked) [Compound D36, 2-(2,6-dioxopiperidin-3-yl)-4-((3-ethyl-1-(4-((6-hydroxy-2-(4-(methylsulfonyl)phenyl)naphthalen-1-yl)oxy)phenoxy)-6,9,12-trioxa-3-azatetradecan-14-yl)oxy)isoindoline-1,3-dione]	62		51		37		
